In brackets after ≈: the same amount, converted by molar mass. Several values for one entry are separate records, joined by “and”; a condition that tells them apart may be missing. Equal values may be shown once. Read-outs that look alike come from different tables or passages of the source.
Legend:
[1] = system: Salmonella enterica serovar Enteritidis NCTC13349; experiment: MIC, antibacterial specificity; assay type: cell-based
[2] = system: panel of selected bacterial species; experiment: Spectrum of activity, average MIC per bacterial group; assay type: cell-based
E. coli AG100 [3] = experiment: Intracellular ATP levels determination; assay type: cell-based, Escherichia coli
Description: The ATP levels were measured using the ATP Determination Kit (Invitrogen, Life Technologies, Paisley, UK) according to the manufacturer’s instructions. […] A drug-free control was included in the assay to monitor the normal growth of the strain. Aliquots of bacteria were collected at 0, 1, 2, 3, 4, 5, 6, and 24 h of incubation at 37 °C, with shaking, inactivated by heating and immediately deep frozen. […] CPZ and PAβN were included for comparison.

[4] = system: Enterobacter aerogenes ATCC13048; experiment: MIC, antibacterial specificity; assay type: cell-based
E. coli AG100 [5] = experiment: Time-kill kinetics (CFU); assay type: cell-based, Escherichia coli
Description: A drug-free control was included in the assay to monitor the normal growth of the strain. Cultures were sampled for CFU determination after 0, 1, 2, 3, 4, 5, 6, and 24 h of incubation at 37 °C with shaking. For CFU determination, 10-fold serial dilutions were made in a saline solution and 20 µl of each solution was placed onto the surface of a Mueller–Hinton agar plate. The colonies were counted after the incubation of the plates at 37 °C for 24 h. The limit of detection of the assay was 17 CFU/ml. Each assay was repeated at least twice.

Structure (SMILES): CCCOc1ccc(-c2cc(OCCN3CCNCC3)c3ccccc3n2)cc1 [PQQ4R, 4-(2-(piperazin-1-yl)ethoxy)-2-(4-propoxyphenyl) quinolone]
- MIC [1]: 256 µg/mL (≈ 654 µM)
- average MIC ([2]; Gram-negative bacteria): ≥ 128 µg/mL
- average MIC ([2]; Gram-positive bacteria): 50 µg/mL
- average MIC ([2]; acid-fast bacteria): 32 µg/mL
- ATP levels during the first 3 h of exposure (E. coli AG100 [3]; AG100, 320 µM (1/2 MIC) and 640 µM (MIC), same level as drug-free control): remained constant
- ATP production less than that of the drug-free control (E. coli AG100 [3]; AG100, half MIC (320 µM), 24 h of exposure): 80%
- ATP - luciferase:Lum (E. coli AG100 [3]; PQQ4R MIC, T1): 438 and 716
- ATP - luciferase:Lum (E. coli AG100 [3]; PQQ4R MIC, T2): 453 and 417
- ATP - luciferase:Lum (E. coli AG100 [3]; PQQ4R MIC, T3): 588 and 696
- ATP - luciferase:Lum (E. coli AG100 [3]; PQQ4R MIC, T4): 454 and 413
- ATP - luciferase:Lum (E. coli AG100 [3]; PQQ4R MIC, T5): 701 and 675
- ATP - luciferase:Lum (E. coli AG100 [3]; PQQ4R MIC, T6): 445 and 588
- ATP - luciferase:Lum (E. coli AG100 [3]; PQQ4R MIC, T24): 545 and 530
- ATP - luciferase:Lum (E. coli AG100 [3]; PQQ4R half MIC, T1): 406 and 431
- ATP - luciferase:Lum (E. coli AG100 [3]; PQQ4R half MIC, T2): 561 and 463
- ATP - luciferase:Lum (E. coli AG100 [3]; PQQ4R half MIC, T3): 373 and 549
- ATP - luciferase:Lum (E. coli AG100 [3]; PQQ4R half MIC, T4): 467 and 479
- ATP - luciferase:Lum (E. coli AG100 [3]; PQQ4R half MIC, T5): 511 and 436
- ATP - luciferase:Lum (E. coli AG100 [3]; PQQ4R half MIC, T6): 560 and 587
- ATP - luciferase:Lum (E. coli AG100 [3]; PQQ4R half MIC, T24): 4358 and 4198
- MIC [4]: >256 µg/mL
- time of exposure to reduce viability to zero (E. coli AG100 [5]): 3 h and 4 h
- MBC (minimal bactericidal concentration) (E. coli AG100 [5]; AG100): 640 µM (≈ 251 µg/mL)
- viability (E. coli AG100 [5]; AG100, 80 μM (1/8 MIC)): 100%
- viability (E. coli AG100 [5]; AG100, 160 μM (1/4 MIC)): 98%
- viability (E. coli AG100 [5]; AG100, 320 μM (1/2 MIC)): 92%
- viability (E. coli AG100 [5]; AG100, 640 μM (MIC)): 0%
- CFU count Log10 (E. coli AG100 [5]; AG100, 1/2 MIC, T1 (1 h)): 3.836
- CFU count Mean (E. coli AG100 [5]; AG100, 1/2 MIC, T1 (1 h)): 6.8E+03
- CFU count Log10 (E. coli AG100 [5]; AG100, 1/2 MIC, T2 (2 h)): 3.5272
- CFU count Mean (E. coli AG100 [5]; AG100, 1/2 MIC, T2 (2 h)): 3.4E+03
- CFU count Log10 (E. coli AG100 [5]; AG100, 1/2 MIC, T3 (3 h)): 3.503
- CFU count Mean (E. coli AG100 [5]; AG100, 1/2 MIC, T3 (3 h)): 3.2E+03
- CFU count Log10 (E. coli AG100 [5]; AG100, 1/2 MIC, T4 (4 h)): 3.423
- CFU count Mean (E. coli AG100 [5]; AG100, 1/2 MIC, T4 (4 h)): 2.6E+03
- CFU count Log10 (E. coli AG100 [5]; AG100, 1/2 MIC, T5 (5 h)): 2.79
- CFU count Mean (E. coli AG100 [5]; AG100, 1/2 MIC, T5 (5 h)): 6.2E+02
- CFU count Log10 (E. coli AG100 [5]; AG100, 1/2 MIC, T6 (6 h)): 2.222
- CFU count Mean (E. coli AG100 [5]; AG100, 1/2 MIC, T6 (6 h)): 1.7E+02
- CFU count Mean (E. coli AG100 [5]; AG100, 1/2 MIC, T24 (24 h)): 2.0E+13
- CFU count - Strain dilution (E. coli AG100 [5]; AG100, 2xMIC, T1 (1 h)): 0
- CFU count - absolute values (E. coli AG100 [5]; AG100, 2xMIC, T1 (1 h)): 0
- CFU count Log10 (E. coli AG100 [5]; AG100, 2xMIC, T1 (1 h)): 0
- CFU count Mean (E. coli AG100 [5]; AG100, 2xMIC, T1 (1 h)): 0.0E+00
- CFU count - Strain dilution (E. coli AG100 [5]; AG100, 2xMIC, T2 (2 h)): 0
- CFU count - absolute values (E. coli AG100 [5]; AG100, 2xMIC, T2 (2 h)): 0
- CFU count Log10 (E. coli AG100 [5]; AG100, 2xMIC, T2 (2 h)): 0
- CFU count Mean (E. coli AG100 [5]; AG100, 2xMIC, T2 (2 h)): 0.0E+00
- CFU count - Strain dilution (E. coli AG100 [5]; AG100, 2xMIC, T3 (3 h)): 0
- CFU count - absolute values (E. coli AG100 [5]; AG100, 2xMIC, T3 (3 h)): 0
- CFU count Log10 (E. coli AG100 [5]; AG100, 2xMIC, T3 (3 h)): 0
- CFU count Mean (E. coli AG100 [5]; AG100, 2xMIC, T3 (3 h)): 0.0E+00
- CFU count - Strain dilution (E. coli AG100 [5]; AG100, 2xMIC, T4 (4 h)): 0
- CFU count - absolute values (E. coli AG100 [5]; AG100, 2xMIC, T4 (4 h)): 0
- CFU count Log10 (E. coli AG100 [5]; AG100, 2xMIC, T4 (4 h)): 0
- CFU count Mean (E. coli AG100 [5]; AG100, 2xMIC, T4 (4 h)): 0.0E+00
- CFU count - Strain dilution (E. coli AG100 [5]; AG100, 2xMIC, T5 (5 h)): 0
- CFU count - absolute values (E. coli AG100 [5]; AG100, 2xMIC, T5 (5 h)): 0
- CFU count Log10 (E. coli AG100 [5]; AG100, 2xMIC, T5 (5 h)): 0
- CFU count Mean (E. coli AG100 [5]; AG100, 2xMIC, T5 (5 h)): 0.0E+00
- CFU count - Strain dilution (E. coli AG100 [5]; AG100, 2xMIC, T6 (6 h)): 0
- CFU count - absolute values (E. coli AG100 [5]; AG100, 2xMIC, T6 (6 h)): 0
- CFU count Log10 (E. coli AG100 [5]; AG100, 2xMIC, T6 (6 h)): 0
- CFU count Mean (E. coli AG100 [5]; AG100, 2xMIC, T6 (6 h)): 0.0E+00
- CFU count - Strain dilution (E. coli AG100 [5]; AG100, 2xMIC, T24 (24 h)): 0
- CFU count - absolute values (E. coli AG100 [5]; AG100, 2xMIC, T24 (24 h)): 0
- CFU count Log10 (E. coli AG100 [5]; AG100, 2xMIC, T24 (24 h)): 0
- CFU count Mean (E. coli AG100 [5]; AG100, 2xMIC, T24 (24 h)): 0.0E+00
- time of exposure to reduce viability to zero (E. coli AG100 [5]; AG100, 2× MIC): 1 h
- CFU count - Strain dilution (E. coli AG100 [5]; AG100, 4xMIC, T1 (1 h)): 0
- CFU count - absolute values (E. coli AG100 [5]; AG100, 4xMIC, T1 (1 h)): 0
- CFU count Log10 (E. coli AG100 [5]; AG100, 4xMIC, T1 (1 h)): 0
- CFU count Mean (E. coli AG100 [5]; AG100, 4xMIC, T1 (1 h)): 0.0E+00
- CFU count - Strain dilution (E. coli AG100 [5]; AG100, 4xMIC, T2 (2 h)): 0

Reference: article PMC5433425 (PeerJ, 2017)
